Measurements taken from paper PMC12876990, “Targeting secreted PLA2 interactions with EGFR and vimentin to arrest prostate tumour growth” (Cell Death & Disease, 2025).
Square brackets hold non-standard residues; d marks the D form. Peptide text beside a SMILES is read from it. 2Nal = N[C@@H](Cc1ccc2ccccc2c1)C(=O)O

Columns and labels:
[1] = rat, in vivo, 20 mg/kg
Procedure: The calculated volumetric do se wa s administered to each rat orally by gav age, using a plastic
Two dose level s of 1 and 20 mg/kg of the te st it em susp ension were administered to each rat
every 3 days (total 10 do ses) for 28 days. This c orresponded to volumetric dose of 10.09 and
10.23 mL/kg. The volumetric dose administered to each animal was calculated on Days 1, 8, 15
Feed consumption was monitored weekly over the 28-day experimental period in all groups
and was continued for a further 2 weeks in the recovery groups (42-day experimental
period). Feed intake was monitored by providing a known mass of feed to each cage and
subtracting the mas s remaining at the end of th e weekly period. Animals were fa sted
overnight on either Day 28 (main groups) or Day 42 (recovery groups).

[2] = 28-day oral toxicity study: daily clinical observations; type: in vivo, male Sprague Dawley rats; parameters: key to Clinical observations: NC A, no clinical abnormalities
Procedure: (§1) 3.6. Procedure for test item administration […]
(§2) intragastric cannula attached to a 3 mL syringe.
(§3) 3.7. Observation of animals […]
(§4) groups: Day 29; recovery groups: Day 43).
(§5) (Appendix C Study Data Spreadsheets). […]
report (Appendix C Study Data Spreadsheets).
3.7.3. Clinical observations […]
groups and on the day of sa crifice. […]
and abnormal behaviour. Skin and fur, eyes and mucous membranes, respiratory, […]
patterns were monitored. Particular attention was paid to observation of tremor, convulsion, salivation, diarrhoea, lethargy, sleep and coma.
3.7.4. Detailed clinical examinations […]
the report (Appendix C Study Data Spreadsheets). […]

[3] = Pharmacokinetics of c2 after oral administration to Sprague Dawley rats (LC MS/MS); type: in vivo; details: 100 mg/kg po
Procedure: Rat studies were performed under contract to the accredited animal research establishment ICP Firefly Pty Ltd. (Alexandria, NSW, Australia; Ref. No AW96/042, NSW Dep’t Primary Industries) with ethics approval from the ICP Firefly animal ethics committee. Briefly, male rats (Sprague Dawley, n = 5 / group) were treated with c2 (single dose 100 mg/kg suspended in 0.1% carboxymethylcellulose, po) and housed in metabolic cages. Animals were sacrificed at 1, 2, 8 or 24 h, blood and tissue samples taken for further analysis, with urine and faeces collected for 1, 6 and 16 hours respectively. Following extraction, c2 concentration in plasma was measured using a validated LC MS/MS assay (limit of detection 7.5 ng/mL and lower limit of quantitation 15 ng/mL in plasma, accuracy 98% and imprecision 12.7% at […]).

[4] = 28-day oral toxicity study: body weights; type: in vivo, male Sprague Dawley rats
Procedure: 3.6. Procedure for test item administration
as §2
3.7. Observation of animals
as §4
(Appendix C Study Data Spreadsheets).
(§6) report (Appendix C Study Data Spreadsheets). […]

[5] = 28-day oral toxicity study: histopathology; type: in vivo, male Sprague Dawley rats; details: Gr 3, 20 mg/kg vs Gr 1
Procedure: organs. Tissues and carcas ses were placed in 10% formalin. The tissues to be processed for histopathological examinations were fixed for at least 48 hours prior to cassette preparation.
The organ weights and gross pathology changes a re included in a spreadsheet as an appendix to the report (Appendix C Study Data Spreadsheets).
3.12. Tissue proces sing / Slide preparation
The tissues were placed in labelled cassette s and placed in an automated tissue processor and taken through several stages of alcohol dehydration, solvent clearing and wax infiltration.
Infiltrated tissues were embedded in wax blo ck s, which were sectioned on a microtome at between 4 and 6 µm. Sections were placed on pre-labelled glass slides and stained with haematoxylin and eo sin (H&E). Stained section s were dehydrated, then solvent cl eared and […]
Histopathological examinations were p erformed on all animals in the vehicle control and high dose treated groups (main study) on the following tissues/organs: adrenal glands, bone marrow, brain, epididymis, heart, kidney, liver, lung, lymph node: mesenteric, prostate, seminal v esicle s with coagulating glands, small and l arge intesti ne (including Peyer’s patches), spinal cord, spleen, stomach, thymus, thyroid gland, trachea, testes and urinary bladder. Slides were evaluated for histology change s under light microscopy at a magnification of 100 to 1000 times.
Individual histopathology results and a summar y are attached a s an app endix to the report (Appendix E Histopathology).
3.14. Statistical analyses
Clinical observations, detailed clinical observations, functional observations, blood and urine analyses and histopathology were summarised by descriptive analysis.
Statistical analyses, consisting of unpaired t-tests, were performed on measured variables: percentage body weight gain s, food consumption and organ weights as a percentage of body weight. A significance level of P < 0.05 was used for all tests.
St Geo rge C lini c al S chool

[6] = 28-day oral toxicity study: functional observation; type: in vivo, male Sprague Dawley rats; details: for Grip strength (mean) Forelimb / Grip strength (mean) Hind limb: week 4
Procedure: as §1, §2, §3, §4, §5, §6
3.7.5. Functional observation […]
s upine drop, grip strength test. […]

## CC(C)C[C@@H]1NC(=O)[C@H](Cc2ccc3ccccc3c2)NC(=O)[C@H](CCCNC(=N)N)NC(=O)[C@H](Cc2ccc3ccccc3c2)NC(=O)[C@H](CO)NC1=O [c2, cyclo-((2-Nal)-Leu-Ser-(2-Nal)-Arg)] (cyclo([2Nal]LS[2Nal]R))
[1]
  Mean feed intake/cage: 5180 g
[2]; 1 and 20 mg/kg
  clinical signs: did not have an adverse effect
[2]; Day 1-7, Gr 2, 1 mg/kg
  Clinical observations: NC A
[2]; Day 1-7, Gr 3, 20 mg/kg
  Clinical observations: NC A
[2]; Day 1-7, Gr 5 recovery, 20 mg/kg
  Clinical observations: NC A
[2]; Day 8-14, Gr 2, 1 mg/kg
  Clinical observations: NC A
[2]; Day 8-14, Gr 3, 20 mg/kg
  Clinical observations: NC A
[2]; Day 8-14, Gr 5 recovery, 20 mg/kg
  Clinical observations: NC A
[2]; Day 15-21, Gr 2, 1 mg/kg
  Clinical observations: NC A
[2]; Day 15-21, Gr 3, 20 mg/kg
  Clinical observations: NC A
[2]; Day 15-21, Gr 5 recovery, 20 mg/kg
  Clinical observations: NC A
[2]; Day 22-28, Gr 2, 1 mg/kg
  Clinical observations: NC A
[2]; Day 22-28, Gr 3, 20 mg/kg
  Clinical observations: NC A
[2]; Day 22-28, Gr 5 recovery, 20 mg/kg
  Clinical observations: NC A
[2]; Day 29-35, Gr 5 recovery, 20 mg/kg
  Clinical observations: NC A
[2]; Day 36-43, Gr 5 recovery, 20 mg/kg
  Clinical observations: NC A
[3]
  distribution after oral dosing: presence in the plasma, kidney and liver
  excretion: majority excreted in faeces
  time of peak in urine: 2 h
[4]; 4-week observation period, Gr 2, 1 mg/kg
  percentage body weight gain: 55.4 ± 8.84%
[4]; 28-day and 42-day experimental period
  body weight gains vs vehicle control: comparable
[4]; Day 1, Gr 2, 1 mg/kg
  Mean body weight: 261 ± 14.0 g
[4]; Day 1, Grs 3 & 5, 20 mg/kg
  Mean body weight: 257 ± 11.3 g
[4]; Day 8, Gr 2, 1 mg/kg
  Mean body weight: 312 ± 15.3 g
[4]; Day 8, Grs 3 & 5, 20 mg/kg
  Mean body weight: 312 ± 14.1 g
[4]; Day 15, Gr 2, 1 mg/kg
  Mean body weight: 356 ± 22.3 g
[4]; Day 15, Grs 3 & 5, 20 mg/kg
  Mean body weight: 354 ± 20.8 g
[4]; Day 22, Gr 2, 1 mg/kg
  Mean body weight: 387 ± 24.9 g
[4]; Day 22, Grs 3 & 5, 20 mg/kg
  Mean body weight: 392 ± 24.5 g
[4]; Day 28, Gr 2, 1 mg/kg
  Mean body weight: 406 ± 31.0 g
[4]; Day 28, Grs 3 & 5, 20 mg/kg
  Mean body weight: 414 ± 27.3 g
[4]; Day 29 after overnight fasting, Gr 2, 1 mg/kg
  Mean body weight: 395 ± 28.0 g
[4]; Day 29 after overnight fasting, Gr 3, 20 mg/kg
  Mean body weight: 395 ± 31.5 g
[4]; Day 36, Gr 5 recovery, 20 mg/kg
  Mean body weight: 458 ± 12.0 g
[4]; Day 42, Gr 5 recovery, 20 mg/kg
  Mean body weight: 480 ± 11.6 g
[4]; Day 43 after overnight fasting, Gr 5 recovery, 20 mg/kg
  Mean body weight: 460 ± 12.3 g
[4]; Week 1, Gr 2, 1 mg/kg
  body weight gain: 19.6 ± 2.49%
[5]
  histopathology: large intestine: colon: No treatment-related differences
  histopathology: liver: No treatment-related differences
  histopathology: small intestine: ileum: No treatment-related differences
  histopathology: stomach: No treatment-related differences
[6]; Week 4
  functional observations tests: no effect
[6]; Gr 2, 1 mg/kg
  Grip strength (mean) Forelimb: 487 ± 33.0
  Grip strength (mean) Hind limb: 59 ± 3.2
[6]; Gr 3, 20 mg/kg
  Grip strength (mean) Forelimb: 458 ± 39.9
  Grip strength (mean) Hind limb: 57 ± 2.5
[6]; Gr 5, 20 mg/kg
  Grip strength (mean) Forelimb: 456 ± 47.2
  Grip strength (mean) Hind limb: 61 ± 3.8
